Here are results for 4 compounds from patent publication US20130005718A1 (priority 2009, published 2013).

For data set [1] the following is noted: variously reported; cited from earlier work.
The conditions of data set [2]: cited from earlier work.
For data set [3], the system named is PNL-induced mechanical allodynia and hyperalgesia. Nature of the data set: Von Frey fiber test after partial sciatic nerve ligation (PNL). The class given is in vivo, C57 Black/6J mice.
Data set [4] relates to righting reflex. The conditions noted are these: cited from earlier work.
In data set [5] the test system is righting reflex. To be noted: i.p. cumulative up to 60 mg/kg.
The target of the next data set is T1, HCN1 channels (Mus musculus, UniProt O88704).
T1 construct: expressed in transfected cells; host or cells: Xenopus oocytes (cRNA injection)
Nature of the data set: Two-electrode voltage clamp (TEVC) of HCN1 channel gating in Xenopus oocytes. Type of data set: cell-based, murine. To be noted: for HCN isoform preference (words): HCN1 versus HCN2, 3 or 4. Background: Two-electrode voltage clamp holds a large cell at a set potential and records current.

Data set [6] deals with PNL-induced thermal hyperalgesia. Nature of the data set: Hind paw withdrawal latency (HPWL) to heat source after PNL. Type of data set: in vivo, C57 Black/6J mice. The conditions noted are these: i.p., 15% heat stimulus.
The target in another data set is HCN3 (Homo sapiens, UniProt Q9P1Z3). To be noted: 20 μM, n=6. On the procedure: (§1) cDNA encoding murine (HCN1, 2 and 4) and human (HCN3) HCN channels were subcloned into pGH19 (HCN1 and 4) or pGHE (HCN2 and HCN3) vectors and amplified in STBL2 cells (Invitrogen Corporation, Carlsbad, Calif.). cRNA was transcribed from NheI (HCN1, HCN3 and HCN4) or SphI (HCN2) linearized DNA using T7 RNA polymerase (Message Machine; Ambion, Houston, Tex.). 11-50 ng RNA was injected into each Xenopus oocyte.
(§2) Recordings were made from Xenopus oocytes 2-5 days after cRNA injection. Cells were maintained in L-15 media without ficoll (Specialty Media, Phillipsburg, N.J.) at 17° C. until use.
(§3) Two microelectrode voltage clamp (TEVC) data, acquired using a Warner Instruments (Hamden, Conn.) OC-725C amplifier, were recorded with Pulse software (HEKA Elektronik, Lambrecht/Pfalz, Germany) following filtering of the wide bandwidth output of the clamp at 2.5 kHz (with a Frequency Devices 902 8-pole Bessel filter) and digitization at 5 kHz using an ITC-18 interface (Instrutech Corporation, Port Washington, N.Y.).
(§4) Microelectrodes were fabricated from 1B120-F4 borosilicate glass (World Precision Instruments, Sarasota, Fla.) and had resistances of 0.1-0.5 MΩ (I passing) and 1-4 MΩ (V sensing) when filled with 3 M KCl. The Ag—AgCl ground wire(s) of the active virtual ground circuit were connected to the bath solution by 3M KCl-2% agar salt bridges placed downstream of, but close to, the oocyte. Recordings were obtained at room temperature (22-24° C.).

A further data set addresses HCN4 (Mus musculus, UniProt O70507). The conditions noted are these: 20 μM, n=4. As to the method:
as §1, §2, §3, §4

The next data set addresses HCN2 (Mus musculus, UniProt O88703). To be noted: 20 μM, n=6. As to the method:
as §1, §2, §3, §4

The next data set deals with GABAA-Rs. The conditions noted are these: cited from earlier work.
The conditions of data set [7]: in vivo; cited from earlier work.
Setting [8] is: HCN1 V1/2 dose-response, relative to 2,6-DTBP.

The structures appear in SMILES notation. Values joined by “and” are separate entries in the source; they are usually repeats but may differ in a detail not shown here. Identical values can stand only once. “Also recorded” adds a separate entry of the source. Like-named read-outs stand apart in the source and are kept apart here. Some results are limits rather than exact numbers.

T1 sequence (O88704 whole entry): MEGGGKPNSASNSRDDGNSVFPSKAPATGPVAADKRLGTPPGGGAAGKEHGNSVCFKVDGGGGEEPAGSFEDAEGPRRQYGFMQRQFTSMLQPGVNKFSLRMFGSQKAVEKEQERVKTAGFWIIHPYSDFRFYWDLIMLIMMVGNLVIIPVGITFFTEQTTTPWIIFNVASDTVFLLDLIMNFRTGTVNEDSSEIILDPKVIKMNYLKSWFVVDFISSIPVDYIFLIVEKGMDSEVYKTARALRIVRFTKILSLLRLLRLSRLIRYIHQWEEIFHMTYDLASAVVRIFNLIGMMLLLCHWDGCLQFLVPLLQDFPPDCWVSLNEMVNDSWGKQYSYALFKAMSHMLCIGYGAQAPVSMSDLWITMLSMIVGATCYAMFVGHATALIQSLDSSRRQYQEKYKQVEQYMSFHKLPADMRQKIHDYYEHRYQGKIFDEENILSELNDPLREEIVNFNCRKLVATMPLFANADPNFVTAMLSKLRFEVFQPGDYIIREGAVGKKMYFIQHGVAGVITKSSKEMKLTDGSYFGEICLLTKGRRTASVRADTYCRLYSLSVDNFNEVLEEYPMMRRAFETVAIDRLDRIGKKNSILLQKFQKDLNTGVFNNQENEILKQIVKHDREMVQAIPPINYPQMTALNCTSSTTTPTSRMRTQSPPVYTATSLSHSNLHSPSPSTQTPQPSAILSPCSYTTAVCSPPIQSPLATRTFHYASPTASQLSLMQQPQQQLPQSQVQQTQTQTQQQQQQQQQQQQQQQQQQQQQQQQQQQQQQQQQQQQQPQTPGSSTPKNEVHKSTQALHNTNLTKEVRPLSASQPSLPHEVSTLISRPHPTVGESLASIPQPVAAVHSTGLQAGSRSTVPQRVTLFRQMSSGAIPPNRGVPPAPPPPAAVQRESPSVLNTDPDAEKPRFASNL
HCN3, sequence (Q9P1Z3 whole entry): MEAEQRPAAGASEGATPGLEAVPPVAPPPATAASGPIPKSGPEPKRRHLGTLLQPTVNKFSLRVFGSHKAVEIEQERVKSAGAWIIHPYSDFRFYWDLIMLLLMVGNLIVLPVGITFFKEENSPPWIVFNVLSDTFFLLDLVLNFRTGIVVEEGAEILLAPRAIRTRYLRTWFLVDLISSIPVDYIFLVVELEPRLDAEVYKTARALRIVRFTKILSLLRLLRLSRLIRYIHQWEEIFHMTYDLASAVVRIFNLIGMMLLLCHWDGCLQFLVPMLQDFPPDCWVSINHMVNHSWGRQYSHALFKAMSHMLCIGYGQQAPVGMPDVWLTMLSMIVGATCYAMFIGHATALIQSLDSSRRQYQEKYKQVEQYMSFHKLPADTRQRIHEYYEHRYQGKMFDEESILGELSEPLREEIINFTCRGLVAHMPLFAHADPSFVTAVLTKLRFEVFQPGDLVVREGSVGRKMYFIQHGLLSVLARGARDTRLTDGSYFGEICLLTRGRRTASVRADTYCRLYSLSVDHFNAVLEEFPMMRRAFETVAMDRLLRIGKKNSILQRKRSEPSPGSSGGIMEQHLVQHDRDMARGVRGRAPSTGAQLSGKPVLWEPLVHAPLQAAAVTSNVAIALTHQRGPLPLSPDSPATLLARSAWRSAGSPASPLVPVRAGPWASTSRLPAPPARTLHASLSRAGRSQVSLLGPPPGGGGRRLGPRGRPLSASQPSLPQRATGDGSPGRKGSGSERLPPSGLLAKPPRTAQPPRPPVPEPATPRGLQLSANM
HCN2, sequence (O88703 whole entry): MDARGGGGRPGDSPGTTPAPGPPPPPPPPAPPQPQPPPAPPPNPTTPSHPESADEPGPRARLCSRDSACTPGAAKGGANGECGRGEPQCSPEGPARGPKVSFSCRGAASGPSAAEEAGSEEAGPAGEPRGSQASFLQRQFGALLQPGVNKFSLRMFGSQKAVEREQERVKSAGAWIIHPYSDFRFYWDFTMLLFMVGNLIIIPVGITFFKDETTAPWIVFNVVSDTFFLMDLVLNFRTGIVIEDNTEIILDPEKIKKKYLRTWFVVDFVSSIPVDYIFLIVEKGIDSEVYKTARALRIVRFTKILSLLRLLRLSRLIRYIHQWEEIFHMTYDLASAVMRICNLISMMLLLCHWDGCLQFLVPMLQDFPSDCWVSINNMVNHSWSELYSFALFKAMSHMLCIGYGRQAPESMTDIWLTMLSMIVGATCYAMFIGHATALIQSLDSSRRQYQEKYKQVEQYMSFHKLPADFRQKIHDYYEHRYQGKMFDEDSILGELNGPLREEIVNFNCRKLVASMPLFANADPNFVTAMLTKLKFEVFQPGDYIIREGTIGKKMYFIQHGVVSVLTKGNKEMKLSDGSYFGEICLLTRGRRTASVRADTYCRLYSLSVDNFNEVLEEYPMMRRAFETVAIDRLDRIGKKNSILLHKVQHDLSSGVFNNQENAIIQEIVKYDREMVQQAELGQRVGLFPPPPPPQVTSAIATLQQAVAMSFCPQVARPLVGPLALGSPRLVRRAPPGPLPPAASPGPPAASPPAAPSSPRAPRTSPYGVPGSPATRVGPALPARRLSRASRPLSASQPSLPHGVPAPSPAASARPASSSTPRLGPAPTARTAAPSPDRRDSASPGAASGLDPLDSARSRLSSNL
HCN4, sequence (O70507 whole entry): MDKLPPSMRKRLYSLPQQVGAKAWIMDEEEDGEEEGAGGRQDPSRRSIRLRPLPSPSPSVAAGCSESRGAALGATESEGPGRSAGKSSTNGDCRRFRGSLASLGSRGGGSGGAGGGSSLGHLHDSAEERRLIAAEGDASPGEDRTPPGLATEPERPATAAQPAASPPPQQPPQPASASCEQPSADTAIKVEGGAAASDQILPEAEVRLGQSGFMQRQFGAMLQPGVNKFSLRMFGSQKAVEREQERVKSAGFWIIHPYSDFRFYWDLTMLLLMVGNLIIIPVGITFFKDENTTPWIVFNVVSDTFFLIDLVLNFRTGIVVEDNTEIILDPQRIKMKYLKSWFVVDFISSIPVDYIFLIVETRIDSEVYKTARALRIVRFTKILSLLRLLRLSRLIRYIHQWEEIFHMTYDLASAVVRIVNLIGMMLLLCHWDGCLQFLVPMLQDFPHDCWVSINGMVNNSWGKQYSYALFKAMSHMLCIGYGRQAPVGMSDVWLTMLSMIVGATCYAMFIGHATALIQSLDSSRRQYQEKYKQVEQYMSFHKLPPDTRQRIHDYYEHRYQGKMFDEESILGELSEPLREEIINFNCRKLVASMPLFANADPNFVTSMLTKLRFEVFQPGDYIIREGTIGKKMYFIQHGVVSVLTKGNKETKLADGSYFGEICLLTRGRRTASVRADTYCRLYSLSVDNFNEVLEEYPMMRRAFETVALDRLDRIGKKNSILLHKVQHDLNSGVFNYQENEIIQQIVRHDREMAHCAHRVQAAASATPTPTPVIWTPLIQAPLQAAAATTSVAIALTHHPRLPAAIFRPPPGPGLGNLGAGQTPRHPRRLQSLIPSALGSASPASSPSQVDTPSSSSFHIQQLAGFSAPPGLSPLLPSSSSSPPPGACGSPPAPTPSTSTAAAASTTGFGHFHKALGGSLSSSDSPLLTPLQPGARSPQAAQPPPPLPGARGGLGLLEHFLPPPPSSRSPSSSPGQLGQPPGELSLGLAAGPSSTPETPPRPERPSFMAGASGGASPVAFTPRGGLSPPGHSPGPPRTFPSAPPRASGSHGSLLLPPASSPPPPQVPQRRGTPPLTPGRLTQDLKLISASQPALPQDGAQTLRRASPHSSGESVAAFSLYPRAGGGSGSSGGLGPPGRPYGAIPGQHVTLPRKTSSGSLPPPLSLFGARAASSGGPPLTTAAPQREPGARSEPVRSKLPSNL

On to `CC(C)c1cccc(C(C)C)c1O` [propofol], for which the aqueous solubility limit in data set [1] was 864 to 1740 µM. Moreover, the “Plasma [propofol] Total” value (Engdahl et al., 1998, calculated with MW 178.3) was 12.3 µM. Under “estimated from 3 to 10 fold lower doses than anesthesia”, the “estimated serum free concentration evoking analgesia” value is 0.1 to 0.3 µM. For the same compound, under “from Table 2”, the “CSF concentration required for anesthesia relative to plasma” value is given as “approximately one-tenth”. Besides, the “Plasma [propofol] Total” value in data set [2] (Engdahl et al., 1998) was 2.2 µg/mL. For the same compound, the “steady-state free concentration in the plasma” value in data set [2] (during general anesthesia) was approximately 1 µM. In addition, the “difference between PW IPSI and PW CONTRA” value in data set [3] (20 mg/kg i.p.) is on record as “significantly reduced”. Besides, the “PW IPSI response” value in [3] (60 mg/kg i.p. cumulative) was “indistinguishable from the control value of PW CONTRA”. The “effect on PW CONTRA, mechanical nociception” value in data set [3] (20 to 60 mg/kg i.p.) is listed as “no statistically significant effect”. Moreover, the “neuropathic analgesia occurs at doses lower than hypnosis/anesthesia” value in data set [3] (i.p.) was 3-10 fold and 3 to 10 fold. Moreover, in [3] (i.p. cumulative dosing, post-PNL mice), the “mechanical hyperalgesia/allodynia in ipsilateral paw” value is “markedly reduced the mechanical hyperalgesia observed in the ipsilateral paw; also recorded: selectively suppresses partial sciatic nerve ligation (PNL)-induced mechanical allodynia and hyperalgesia”. Also, in data set [3] (i.p., 2.5 to 4 g fibers averaged, 3.3 before drug, unity = complete amelioration), the “PW IPSI as a function of control PW CONTRA (ratio) after drug” value came out at 1.6. In [3] (subhypnotic i.p. doses, 2.5 to 4 g fibers averaged), the “reversal of the neuropathic phenotype” value is “about 75%”. For the same compound, the “mechanical threshold, Logit transformation (allodynia, words)” value in data set [3] (threshold set at PW of 0.1) is given as “selectively restored the mechanical threshold to that observed in the uninjured paw”. Also, the “i.p. dose required for obviation of righting reflex” value in the data set on righting reflex [4] (i.p.) is “greater than 100 mg/kg”. The “intravenous dose for anesthesia” value in the data set on righting reflex [4] (mice, i.v.) is 5 mg/kg. Moreover, in the data set with righting reflex [5], the “loss of righting reflex” value is reported as “No animals lost their righting reflex”. The EC50 (in general, the midpoint of the concentration-response curve) at HCN1 channels (EC50 for hyperpolarization of V1/2 of HCN1 gating (Hill fit), 20 min incubation, Xenopus oocytes, TEVC) was 7 to 13 µM and 13 µM and ~13 µM. Besides, the “HCN isoform preference (words)” value on HCN1 channels is “preferentially inhibits HCN1 with little efficacy against HCN2, 3 or 4 channels”. For the same compound, the “apparent stoichiometry h (Hill coefficient)” value on HCN1 channels (Hill fit of dose-response) is on record as 1.1. Further, the “concentration at which shift in HCN1 V1/2 was significant” value at HCN1 channels (versus DMSO control) is not below 3 µM. In [6], the “thermal hyperalgesia, ipsilateral HPWL (words)” value was “powerfully and preferentially relieved neuropathic thermal hyperalgesia; also recorded: relieve the neuropathic behavior; also recorded: selectively ameliorate PNL-induced thermal hyperalgesia”; the “thermal nociception, contralateral HPWL” value is given as “without significantly altering nociceptive behavior”. The “ΔV1/2 of HCN3” value at HCN3 is recorded as −0.6 mV. Also, the “ΔV1/2 of HCN4” value on HCN4 was 0.1 mV. The “ΔV1/2 of HCN2” value at HCN2 was −9.1 mV.
Consider `CCC(C)c1cccc(C(C)CC)c1O` (stereo not shown) [2,6-DSBP, 2,6-di-sec-butylphenol], for which, in the data set with GABAA-Rs, the “allosteric modulation of GABAA-Rs” value is on record as “potent allosteric activators of the chloride channels”. Further, the “HCN1 antagonism” value on HCN1 channels is on record as “weak HCN1 antagonist”. Moreover, at HCN1 channels (setting [8]), the “offset of the 2,6-DTBP Hill fit line needed to describe the data” value (“offset” for short) stood at 15 fold. Further, the “anesthetic activity” value in [7] is “potent anesthetics”.
As for `CC(C)(C)c1ccc(O)c(C(C)(C)C)c1` [2,4-DTBP, 2,4-di-tert-butylphenol], in the data set on GABAA-Rs, the “allosteric modulation of GABAA-Rs” value was “ineffective”. Also, on HCN1 channels, the “HCN1 antagonism” value is “effective antagonist of HCN1”; the “offset” value was 2 fold; the “HCN isoform preference (words)” value is recorded as “preferentially inhibit HCN1 with little efficacy against HCN2, 3 or 4 channels”.
Consider `CCC(C)c1ccc(O)c(C(C)CC)c1` (stereo not shown) [2,4-DSBP, 2,4-di-sec-butylphenol], for which the “allosteric modulation of GABAA-Rs” value in the data set with GABAA-Rs is reported as “effective agonist of GABAA-Rs; also recorded: potent allosteric activators of the chloride channels”. At HCN1 channels (setting [8]), the “offset” value is recorded as 23 fold. For the same compound, the “anesthetic activity” value in data set [7] is “potent anesthetics”.
